Activity calls are given as the source filed them. No cut-off for these calls is given here.
T1: Dihydroorotate dehydrogenase (Plasmodium falciparum, UniProt Q54A96)
T1 sequence (Q54A96 whole entry): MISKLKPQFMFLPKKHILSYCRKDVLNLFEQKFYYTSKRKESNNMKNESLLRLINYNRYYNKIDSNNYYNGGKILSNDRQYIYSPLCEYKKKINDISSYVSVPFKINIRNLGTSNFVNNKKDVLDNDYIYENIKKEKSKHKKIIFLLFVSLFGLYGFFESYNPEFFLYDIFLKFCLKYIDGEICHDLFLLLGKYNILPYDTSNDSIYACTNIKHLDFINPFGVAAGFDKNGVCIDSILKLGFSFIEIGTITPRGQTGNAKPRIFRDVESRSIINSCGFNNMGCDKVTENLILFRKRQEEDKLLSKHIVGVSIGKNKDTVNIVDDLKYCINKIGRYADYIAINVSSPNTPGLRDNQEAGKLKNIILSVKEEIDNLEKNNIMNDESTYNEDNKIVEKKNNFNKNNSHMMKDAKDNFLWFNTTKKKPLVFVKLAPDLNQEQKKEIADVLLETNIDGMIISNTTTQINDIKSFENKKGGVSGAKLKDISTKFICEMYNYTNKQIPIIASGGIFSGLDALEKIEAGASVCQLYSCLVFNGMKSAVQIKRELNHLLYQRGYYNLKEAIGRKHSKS

T2: Dihydroorotate dehydrogenase (Plasmodium falciparum) (UniProt Q54A96)
T2 sequence (whole entry): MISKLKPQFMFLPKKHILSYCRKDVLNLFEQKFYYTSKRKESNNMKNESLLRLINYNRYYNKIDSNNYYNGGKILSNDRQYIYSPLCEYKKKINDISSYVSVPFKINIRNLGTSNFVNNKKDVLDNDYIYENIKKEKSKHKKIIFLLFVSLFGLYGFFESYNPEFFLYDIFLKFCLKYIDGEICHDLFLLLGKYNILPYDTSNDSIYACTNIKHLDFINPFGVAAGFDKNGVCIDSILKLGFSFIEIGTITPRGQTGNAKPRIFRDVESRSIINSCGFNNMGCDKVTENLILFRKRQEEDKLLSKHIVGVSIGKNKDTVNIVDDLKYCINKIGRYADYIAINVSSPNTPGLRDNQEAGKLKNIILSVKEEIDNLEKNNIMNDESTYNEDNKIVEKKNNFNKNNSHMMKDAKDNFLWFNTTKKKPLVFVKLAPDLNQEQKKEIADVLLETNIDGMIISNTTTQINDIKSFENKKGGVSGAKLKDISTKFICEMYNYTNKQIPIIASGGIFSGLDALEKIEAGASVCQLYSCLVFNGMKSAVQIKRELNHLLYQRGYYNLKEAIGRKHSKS

T3: Dihydroorotate dehydrogenase (quinone), mitochondrial (Plasmodium falciparum (isolate 3D7)), Q08210 [F188A]
T3 sequence (whole entry): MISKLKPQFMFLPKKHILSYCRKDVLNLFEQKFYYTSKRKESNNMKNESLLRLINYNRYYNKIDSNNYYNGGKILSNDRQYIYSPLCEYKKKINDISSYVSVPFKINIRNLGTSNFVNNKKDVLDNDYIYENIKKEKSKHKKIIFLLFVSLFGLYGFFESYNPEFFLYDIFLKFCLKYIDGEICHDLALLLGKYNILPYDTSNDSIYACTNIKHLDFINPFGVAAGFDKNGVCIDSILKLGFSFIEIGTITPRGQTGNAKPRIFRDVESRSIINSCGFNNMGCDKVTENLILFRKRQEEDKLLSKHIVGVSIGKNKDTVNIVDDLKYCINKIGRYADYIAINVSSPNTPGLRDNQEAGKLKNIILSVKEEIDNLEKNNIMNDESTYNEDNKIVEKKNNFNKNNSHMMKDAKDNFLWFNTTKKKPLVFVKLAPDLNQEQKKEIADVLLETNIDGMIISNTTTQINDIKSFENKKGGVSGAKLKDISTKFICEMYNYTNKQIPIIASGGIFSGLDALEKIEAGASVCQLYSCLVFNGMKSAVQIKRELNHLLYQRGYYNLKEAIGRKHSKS


Tests used:
[1] = biological target: T1, Dihydroorotate dehydrogenase; experiment: (§1) Inhibition of recombinant Plasmodium falciparum DHODH
[2] = Selectivity for Plasmodium falciparum recombinant DHODH over human recombinant DHODH
[3] = biological target: Dihydroorotate dehydrogenase (quinone), mitochondrial (Homo sapiens, UniProt Q02127); experiment: Inhibition of human recombinant DHODH
[4] = biological target: T2, Dihydroorotate dehydrogenase (Plasmodium falciparum); experiment: Inhibition of recombinant Plasmodium falciparum DHODH at 10 uM
[5] = tested on: T3, Dihydroorotate dehydrogenase (quinone), mitochondrial (Plasmodium falciparum (isolate 3D7)), Q08210 [F188A]; experiment: Inhibition of Plasmodium falciparum DHODH F188A mutant
[6] = tested on: Plasmodium falciparum; experiment: Antimalarial activity against Plasmodium falciparum NF54 3D7 after 48 hrs; type: functional, organism-based; settings: NF54/3D7, 48 h
[7] = compound: CCCCCCCCCCC1=C(C)C(=O)C(OC)=C(OC)C1=O; experiment: as §1
[8] = compound: O=C1CC(C(=O)O)NC(=O)N1; experiment: as §1

Dihydroorotate dehydrogenase (quinone), mitochondrial, sequence (Q02127 whole entry): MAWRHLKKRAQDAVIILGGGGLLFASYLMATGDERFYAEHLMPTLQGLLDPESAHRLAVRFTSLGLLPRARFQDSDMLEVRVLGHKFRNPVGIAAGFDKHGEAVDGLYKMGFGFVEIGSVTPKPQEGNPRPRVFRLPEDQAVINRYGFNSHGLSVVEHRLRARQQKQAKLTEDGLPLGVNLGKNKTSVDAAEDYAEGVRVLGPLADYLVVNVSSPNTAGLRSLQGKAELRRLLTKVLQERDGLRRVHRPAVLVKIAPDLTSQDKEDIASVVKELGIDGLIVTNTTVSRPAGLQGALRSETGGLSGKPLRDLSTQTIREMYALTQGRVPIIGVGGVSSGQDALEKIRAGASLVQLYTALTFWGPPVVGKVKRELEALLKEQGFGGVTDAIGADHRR

Row | Molecule | IC50 [1] | Ki [1] | Selectivity ratio [2] | IC50 [3] | Ki [3] | inhibition [4] | IC50 [6] | Activity [5] | Km [7] | Km [8]
1 | CCOC(=O)C(=CNc1ccc2[nH]cnc2c1)C(=O)OCC | 349 µM | 40.2 µM |  | > 500 µM |  | > 10% |  |  |  | 
2 | Cc1cc(Br)ccc1NC(=O)c1ccc2ccccc2c1 | 0.18 µM | 0.02 µM | 2310 |  | 50.9 µM |  |  | inactive |  | 
3 | CCOC(=O)/C(C#N)=C\Nc1cccc(-c2ccccc2)c1 |  |  | 10 | 220 µM | 0.027 µM |  |  |  |  | 
4 | CCOC(=O)C(=CNc1ccc2sc3ccccc3c2c1)C(=O)OCC | 0.16 µM | 0.02 µM | 182 | 29.6 µM | 3.63 µM | > 10% | 1.8 µM |  |  | 
5 | CCOC(=O)C(=CNc1ccccc1C)C(=O)OCC | 346 µM | 39.7 µM | 1 | 292 µM | 35.9 µM | > 10% |  |  |  | 
6 | C/C(O)=C(\C#N)C(=O)Nc1ccc(C(F)(F)F)cc1 |  |  |  |  |  |  |  | inactive |  | 
7 | CCOC(=O)C(=CNc1ccc2[nH]ncc2c1)C(=O)OCC | 27.8 µM | 3.2 µM | 5 | 123 µM | 15.1 µM | > 10% |  |  |  | 
8 | Cc1c(C(=O)Nc2cc(Cl)cc(Cl)c2)cccc1[N+](=O)[O-] | 0.23 µM | 0.03 µM | 2280 |  | 64.4 µM |  |  | inactive |  | 
9 | Dihydroorotate dehydrogenase (Plasmodium falciparum), Q54A96 (protein) MISKLKPQFMFLPKKHILSYCRKDVLNLFEQKFYYTSKRKESNNMKNESLLRLINYNRYYNKIDSNNYYNGGKILSNDRQYIYSPLCEYKKKINDISSYVSVPFKINIRNLGTSNFVNNKKDVLDNDYIYENIKKEKSKHKKIIFLLFVSLFGLYGFFESYNPEFFLYDIFLKFCLKYIDGEICHDLFLLLGKYNILPYDTSNDSIYACTNIKHLDFINPFGVAAGFDKNGVCIDSILKLGFSFIEIGTITPRGQTGNAKPRIFRDVESRSIINSCGFNNMGCDKVTENLILFRKRQEEDKLLSKHIVGVSIGKNKDTVNIVDDLKYCINKIGRYADYIAINVSSPNTPGLRDNQEAGKLKNIILSVKEEIDNLEKNNIMNDESTYNEDNKIVEKKNNFNKNNSHMMKDAKDNFLWFNTTKKKPLVFVKLAPDLNQEQKKEIADVLLETNIDGMIISNTTTQINDIKSFENKKGGVSGAKLKDISTKFICEMYNYTNKQIPIIASGGIFSGLDALEKIEAGASVCQLYSCLVFNGMKSAVQIKRELNHLLYQRGYYNLKEAIGRKHSKS |  |  |  |  |  |  |  |  | 13.4 µM | 31.4 µM

Second part, led by results:

Row | IC50 [1] | Ki [1] | Selectivity ratio [2] | IC50 [3] | Ki [3] | inhibition [4] | IC50 [6] | Molecule | Activity [5] | Km [7] | Km [8]
10 | 86.7 µM | 10 µM | 1 | 104 µM | 12.8 µM |  |  | CCOC(=O)C(=CNc1cccc(-c2ccccc2)c1)C(=O)OCC |  |  | 
11 | > 500 µM |  |  | > 500 µM |  |  |  | CCOC(=O)C(=CNc1ccc(-c2ccccc2)cc1)C(=O)OCC |  |  | 
12 | 40 µM | 4.6 µM | 4 | 146 µM | 17.9 µM | > 10% |  | CCOC(=O)C(=CNc1ccc(C)cc1)C(=O)OCC |  |  | 
13 | 0.44 µM | 0.05 µM | 1210 | 491 µM | 60.4 µM | > 10% | 4 µM | CCOC(=O)/C(C#N)=C\Nc1ccc2c(c1)c1ccccc1n2CC |  |  | 
14 | > 500 µM |  |  | > 500 µM |  |  |  | CCOC(=O)/C(C#N)=C\Nc1ccc(-c2ccccc2)cc1 |  |  | 
